Experimental data from BindingDB's records for doi:10.1016/j.bmcl.2015.03.038 (Bristol Myers Squibb, 2015).

How the values were obtained:
[1] = target: Neurogenic locus notch homolog protein 3 (Human, UniProt Q9UM47); experiment: Inhibition of Notch3 intracellular domain fragment transfected in human HeLa cells co-transfected with CBF1-PGL3 luciferase reporter vector by transactivation assay
[2] = target: Neurogenic locus notch homolog protein 1 (Homo sapiens, UniProt P46531); experiment: Inhibition of Notch1 intracellular domain fragment transfected in human HeLa cells co-transfected with CBF1-PGL3 luciferase reporter vector by transactivation assay
[3] = target: Neurogenic locus notch homolog protein 4 (Homo sapiens, UniProt Q99466); experiment: Inhibition of Notch4 intracellular domain fragment transfected in human HeLa cells co-transfected with CBF1-PGL3 luciferase reporter vector by transactivation assay
[4] = target: Neurogenic locus notch homolog protein 2 (Homo sapiens, UniProt Q04721); experiment: Inhibition of Notch2 intracellular domain fragment transfected in human HeLa cells co-transfected with CBF1-PGL3 luciferase reporter vector by transactivation assay

Chain of Neurogenic locus notch homolog protein 1 (P46531 whole entry, the tested form may be a part): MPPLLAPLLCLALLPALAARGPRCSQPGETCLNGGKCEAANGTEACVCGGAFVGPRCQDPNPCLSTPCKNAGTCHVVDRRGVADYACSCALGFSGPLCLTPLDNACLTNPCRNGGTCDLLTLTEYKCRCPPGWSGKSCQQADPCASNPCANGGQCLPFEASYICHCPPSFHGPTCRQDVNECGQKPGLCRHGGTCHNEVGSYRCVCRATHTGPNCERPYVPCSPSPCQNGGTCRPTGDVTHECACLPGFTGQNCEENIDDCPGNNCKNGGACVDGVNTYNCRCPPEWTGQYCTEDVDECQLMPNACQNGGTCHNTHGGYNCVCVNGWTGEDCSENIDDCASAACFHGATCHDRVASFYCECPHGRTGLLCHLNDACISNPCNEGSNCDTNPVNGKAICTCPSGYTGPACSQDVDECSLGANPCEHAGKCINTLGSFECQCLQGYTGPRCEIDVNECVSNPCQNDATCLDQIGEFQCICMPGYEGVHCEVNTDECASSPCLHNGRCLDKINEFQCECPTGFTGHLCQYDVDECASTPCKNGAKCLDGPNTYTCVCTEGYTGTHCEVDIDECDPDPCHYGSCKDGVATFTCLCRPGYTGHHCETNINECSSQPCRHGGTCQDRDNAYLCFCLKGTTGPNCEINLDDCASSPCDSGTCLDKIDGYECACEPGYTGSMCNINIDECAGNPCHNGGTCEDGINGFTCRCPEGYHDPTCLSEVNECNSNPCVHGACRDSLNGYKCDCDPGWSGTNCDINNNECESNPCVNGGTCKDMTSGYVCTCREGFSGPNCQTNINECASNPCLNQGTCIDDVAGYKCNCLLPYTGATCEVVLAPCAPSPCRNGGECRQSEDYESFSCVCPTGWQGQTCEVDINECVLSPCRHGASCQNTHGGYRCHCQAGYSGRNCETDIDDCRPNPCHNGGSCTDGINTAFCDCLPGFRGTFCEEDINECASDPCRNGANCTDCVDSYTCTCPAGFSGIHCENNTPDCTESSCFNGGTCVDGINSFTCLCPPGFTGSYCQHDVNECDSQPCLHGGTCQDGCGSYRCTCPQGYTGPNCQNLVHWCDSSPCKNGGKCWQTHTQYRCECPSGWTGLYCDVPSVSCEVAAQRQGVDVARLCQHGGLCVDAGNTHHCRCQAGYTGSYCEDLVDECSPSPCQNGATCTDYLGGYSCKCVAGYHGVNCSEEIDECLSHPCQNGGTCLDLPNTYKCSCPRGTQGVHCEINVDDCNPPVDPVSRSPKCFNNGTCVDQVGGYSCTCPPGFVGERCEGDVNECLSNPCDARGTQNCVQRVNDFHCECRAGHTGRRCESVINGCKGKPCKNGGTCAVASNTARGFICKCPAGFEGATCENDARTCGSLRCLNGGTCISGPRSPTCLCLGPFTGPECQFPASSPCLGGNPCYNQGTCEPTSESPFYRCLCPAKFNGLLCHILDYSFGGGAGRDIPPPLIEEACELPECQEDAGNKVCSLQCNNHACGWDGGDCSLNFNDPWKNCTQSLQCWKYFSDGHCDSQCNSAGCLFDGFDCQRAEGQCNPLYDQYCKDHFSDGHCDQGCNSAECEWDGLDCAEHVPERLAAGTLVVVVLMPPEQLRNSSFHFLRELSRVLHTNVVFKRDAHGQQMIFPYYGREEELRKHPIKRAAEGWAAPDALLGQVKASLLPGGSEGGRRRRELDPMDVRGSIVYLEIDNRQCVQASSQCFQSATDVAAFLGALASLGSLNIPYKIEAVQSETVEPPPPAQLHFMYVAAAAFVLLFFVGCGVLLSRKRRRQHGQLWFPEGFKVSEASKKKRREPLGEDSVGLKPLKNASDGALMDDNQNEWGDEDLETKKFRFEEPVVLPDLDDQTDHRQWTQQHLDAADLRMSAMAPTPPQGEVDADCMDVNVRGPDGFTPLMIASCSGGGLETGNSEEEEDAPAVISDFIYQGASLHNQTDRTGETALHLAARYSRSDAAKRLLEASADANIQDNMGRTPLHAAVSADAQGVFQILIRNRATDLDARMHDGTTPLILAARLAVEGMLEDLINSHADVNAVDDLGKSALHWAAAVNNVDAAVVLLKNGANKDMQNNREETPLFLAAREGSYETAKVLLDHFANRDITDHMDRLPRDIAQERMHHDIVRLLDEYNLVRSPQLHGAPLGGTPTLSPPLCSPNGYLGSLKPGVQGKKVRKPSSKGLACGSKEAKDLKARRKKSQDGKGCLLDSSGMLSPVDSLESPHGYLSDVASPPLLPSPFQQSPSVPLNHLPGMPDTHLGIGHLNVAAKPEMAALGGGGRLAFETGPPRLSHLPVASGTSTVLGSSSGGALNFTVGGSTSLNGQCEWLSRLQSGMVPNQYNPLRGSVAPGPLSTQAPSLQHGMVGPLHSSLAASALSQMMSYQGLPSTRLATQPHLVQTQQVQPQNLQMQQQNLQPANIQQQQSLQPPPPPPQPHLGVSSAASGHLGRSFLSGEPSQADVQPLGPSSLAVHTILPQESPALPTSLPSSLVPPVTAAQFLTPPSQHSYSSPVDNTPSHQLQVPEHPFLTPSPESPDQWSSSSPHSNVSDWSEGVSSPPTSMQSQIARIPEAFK
Chain of Neurogenic locus notch homolog protein 3 (Q9UM47 whole entry, the tested form may be a part): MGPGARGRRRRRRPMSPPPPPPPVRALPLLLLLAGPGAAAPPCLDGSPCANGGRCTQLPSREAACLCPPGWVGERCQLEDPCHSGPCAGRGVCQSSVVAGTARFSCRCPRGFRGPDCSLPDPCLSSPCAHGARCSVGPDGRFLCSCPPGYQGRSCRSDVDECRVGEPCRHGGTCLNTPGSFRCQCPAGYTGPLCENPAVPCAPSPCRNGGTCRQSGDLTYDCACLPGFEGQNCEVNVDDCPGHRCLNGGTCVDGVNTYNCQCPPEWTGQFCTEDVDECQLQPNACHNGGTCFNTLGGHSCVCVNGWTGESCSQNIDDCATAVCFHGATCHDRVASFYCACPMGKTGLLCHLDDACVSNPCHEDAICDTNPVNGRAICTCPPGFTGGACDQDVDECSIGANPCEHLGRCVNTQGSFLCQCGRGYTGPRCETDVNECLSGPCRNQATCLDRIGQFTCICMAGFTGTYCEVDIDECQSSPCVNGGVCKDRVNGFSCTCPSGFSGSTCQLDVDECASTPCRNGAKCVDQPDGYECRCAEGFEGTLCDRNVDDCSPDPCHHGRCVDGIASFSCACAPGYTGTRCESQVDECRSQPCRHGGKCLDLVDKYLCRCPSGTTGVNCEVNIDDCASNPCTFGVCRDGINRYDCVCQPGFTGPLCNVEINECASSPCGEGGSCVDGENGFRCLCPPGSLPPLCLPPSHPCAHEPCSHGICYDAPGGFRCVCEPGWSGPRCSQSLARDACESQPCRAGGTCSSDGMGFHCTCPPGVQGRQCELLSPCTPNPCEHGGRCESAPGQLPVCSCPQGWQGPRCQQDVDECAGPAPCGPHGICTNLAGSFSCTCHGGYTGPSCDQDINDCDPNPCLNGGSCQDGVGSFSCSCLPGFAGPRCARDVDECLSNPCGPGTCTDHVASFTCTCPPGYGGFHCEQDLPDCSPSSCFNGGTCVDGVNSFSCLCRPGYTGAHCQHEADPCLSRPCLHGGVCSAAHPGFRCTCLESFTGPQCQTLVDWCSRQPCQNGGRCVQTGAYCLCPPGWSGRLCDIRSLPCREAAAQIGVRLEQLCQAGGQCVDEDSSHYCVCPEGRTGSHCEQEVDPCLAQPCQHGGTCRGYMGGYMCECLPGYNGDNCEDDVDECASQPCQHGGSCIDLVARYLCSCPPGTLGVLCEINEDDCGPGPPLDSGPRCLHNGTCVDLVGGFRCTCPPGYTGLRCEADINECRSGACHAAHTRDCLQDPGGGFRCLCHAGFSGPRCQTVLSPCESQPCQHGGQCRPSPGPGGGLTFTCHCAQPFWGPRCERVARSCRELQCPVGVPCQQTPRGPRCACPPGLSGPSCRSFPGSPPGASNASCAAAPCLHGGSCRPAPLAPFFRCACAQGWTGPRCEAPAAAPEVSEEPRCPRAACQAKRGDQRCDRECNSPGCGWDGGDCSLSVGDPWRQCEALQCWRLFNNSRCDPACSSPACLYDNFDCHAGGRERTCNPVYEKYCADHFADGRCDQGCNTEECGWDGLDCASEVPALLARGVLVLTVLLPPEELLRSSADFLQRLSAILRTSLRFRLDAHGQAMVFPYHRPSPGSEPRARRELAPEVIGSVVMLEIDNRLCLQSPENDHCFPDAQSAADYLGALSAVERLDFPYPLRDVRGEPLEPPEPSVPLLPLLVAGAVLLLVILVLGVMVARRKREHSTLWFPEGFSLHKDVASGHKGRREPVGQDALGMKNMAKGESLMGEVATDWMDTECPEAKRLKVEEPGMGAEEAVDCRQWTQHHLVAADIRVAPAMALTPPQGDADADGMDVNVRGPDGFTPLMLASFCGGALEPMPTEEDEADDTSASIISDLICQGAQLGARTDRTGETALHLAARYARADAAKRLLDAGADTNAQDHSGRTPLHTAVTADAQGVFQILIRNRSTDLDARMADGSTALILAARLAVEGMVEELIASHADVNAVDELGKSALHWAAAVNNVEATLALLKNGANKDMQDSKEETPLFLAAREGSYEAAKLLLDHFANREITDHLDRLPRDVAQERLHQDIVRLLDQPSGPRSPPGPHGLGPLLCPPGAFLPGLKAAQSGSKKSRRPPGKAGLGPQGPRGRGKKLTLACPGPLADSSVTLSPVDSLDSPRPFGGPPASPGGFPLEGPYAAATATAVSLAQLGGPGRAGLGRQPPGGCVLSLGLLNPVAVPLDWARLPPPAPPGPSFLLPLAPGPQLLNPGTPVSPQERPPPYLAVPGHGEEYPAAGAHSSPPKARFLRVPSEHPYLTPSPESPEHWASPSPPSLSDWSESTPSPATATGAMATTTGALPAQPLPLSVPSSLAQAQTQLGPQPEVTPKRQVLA

Row | Structure (SMILES) | IC50 [1] | IC50 [2] | IC50 [3] | IC50 [4]
1 | NC(=O)[C@@H](c1cnoc1)[C@@H](CCC(F)(F)F)C(=O)N[C@H]1N=C(c2ccccc2)c2ccccc2NC1=O | 29 nM | 32 nM |  | 
2 | Cc1nc([C@H](C(N)=O)[C@@H](CCC(F)(F)F)C(=O)N[C@H]2N=C(c3ccccc3)c3ccccc3N(C)C2=O)no1 | 119 nM | 169 nM |  | 
3 | CN1C(=O)[C@@H](NC(=O)[C@H](CCC(F)(F)F)[C@@H](C(N)=O)c2cccc(C(F)(F)F)c2)N=C(c2ccccc2)c2ccccc21 | 2 nM | 1 nM |  | 
4 | CCC(CC)[C@H](C(N)=O)[C@@H](CCC(F)(F)F)C(=O)N[C@H]1N=C(c2ccccc2)c2ccccc2N(C)C1=O | 1 nM | 1 nM |  | 
5 | CN1C(=O)[C@@H](NC(=O)[C@H](CCC(F)(F)F)[C@@H](C(N)=O)c2cc(F)cc(F)c2)N=C(c2ccccc2)c2ccccc21 | 2 nM | 2 nM |  | 
6 | Cc1cccc([C@H](C(N)=O)[C@@H](CCC(F)(F)F)C(=O)N[C@H]2N=C(c3ccccc3)c3ccccc3N(C)C2=O)c1 | 1 nM | 3 nM |  | 
7 | COc1ccc([C@H](C(N)=O)[C@@H](CCC(F)(F)F)C(=O)N[C@H]2N=C(c3ccccc3)c3ccccc3N(C)C2=O)cc1 | 6 nM | 9 nM |  | 
8 | CN1C(=O)[C@@H](NC(=O)[C@H](CCC(F)(F)F)[C@@H](C(N)=O)c2ccc(F)cc2F)N=C(c2ccccc2)c2ccccc21 | 1 nM | 1 nM |  | 
9 | NC(=O)[C@@H](c1ncon1)[C@@H](CCC(F)(F)F)C(=O)N[C@H]1N=C(c2ccccc2)c2ccccc2NC1=O | 656 nM | 1190 nM |  | 
10 | CN1C(=O)[C@@H](NC(=O)[C@H](CCC(F)(F)F)[C@@H](C(N)=O)c2cccc(S(C)(=O)=O)c2)N=C(c2ccccc2)c2ccccc21 | 2240 nM | 2060 nM |  | 
11 | NC(=O)[C@@H](c1cocn1)[C@@H](CCC(F)(F)F)C(=O)N[C@H]1N=C(c2ccccc2)c2ccccc2NC1=O | 161 nM | 231 nM |  | 
12 | CCC(CC)[C@H](C(N)=O)[C@@H](CC(C)C)C(=O)N[C@H]1N=C(c2ccccc2)c2ccccc2N(C)C1=O |  | 2 nM |  | 
13 | CN1C(=O)[C@@H](NC(=O)[C@H](CCC(F)(F)F)[C@@H](C(N)=O)c2ccc(F)c(F)c2)N=C(c2ccccc2)c2ccccc21 | 2 nM | 2 nM |  | 
14 | Cc1nocc1[C@H](C(N)=O)[C@@H](CCC(F)(F)F)C(=O)N[C@H]1N=C(c2ccccc2)c2ccccc2N(C)C1=O | 3 nM | 3 nM |  | 
15 | CN1C(=O)[C@@H](NC(=O)[C@H](CCC(F)(F)F)[C@@H](C(N)=O)c2ccc(F)cc2)N=C(c2ccccc2)c2ccccc21 | 1 nM | 2 nM |  | 
16 | Cc1cc([C@H](C(N)=O)[C@@H](CCC(F)(F)F)C(=O)N[C@H]2N=C(c3ccccc3)c3ccccc3N(C)C2=O)no1 | 62 nM | 54 nM |  | 
17 | CN1C(=O)[C@@H](NC(=O)[C@H](CCC(F)(F)F)[C@@H](C(N)=O)c2ccccc2)N=C(c2ccccc2)c2ccccc21 |  |  | 3 nM | 1 nM
18 | CCC(CC)[C@H](C(N)=O)[C@@H](CC(C)(C)C)C(=O)N[C@H]1N=C(c2ccccc2)c2ccccc2N(C)C1=O | 3 nM | 3 nM |  | 
19 | CN1C(=O)[C@@H](NC(=O)[C@H](CCC(F)(F)F)[C@@H](C(N)=O)c2cccc(OC(F)(F)F)c2)N=C(c2ccccc2)c2ccccc21 | 4 nM | 3 nM |  | 
20 | CCC[C@H](C(N)=O)[C@@H](CC(F)(F)F)C(=O)N[C@H]1N=C(c2ccccc2)c2ccccc2N(C)C1=O | 24 nM | 13 nM |  | 
